Laboratory results taken from patent publication US8603751B2, “Mycobacterial disease detection, treatment, and drug discovery” (priority 2006, dated 2013).

Biological target: DevR (also known as DosR or Rv3133c) dimerization (Mycobacterium tuberculosis, UniProt P9WMF9)
Assay: M-PFC Alamar Blue screen for inhibitors of DevR dimerization
Format: cell-based
Conditions: for effect on DevR dimerization: M-PFC Alamar Blue assay in Msm, titration (FIG. 11); for concentration with the most dramatic effect on DevR dimerization: titration curves, FIG. 11

DevR (also known as DosR or Rv3133c) dimerization, sequence (P9WMF9 whole entry, looked up): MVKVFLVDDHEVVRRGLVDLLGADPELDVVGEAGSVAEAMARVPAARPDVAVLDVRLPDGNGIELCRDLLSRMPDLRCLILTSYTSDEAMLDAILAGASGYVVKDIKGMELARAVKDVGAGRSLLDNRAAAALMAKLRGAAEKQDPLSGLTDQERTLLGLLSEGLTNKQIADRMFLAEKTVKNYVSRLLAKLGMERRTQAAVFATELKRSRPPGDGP

Structure (SMILES): Cl.Cn1c(=N)n(CC(=O)c2cc(C(C)(C)C)c(O)c(C(C)(C)C)c2)c2ccccc21 [1-(3,5-di-tert-butyl-4-hydroxyphenyl)-2-(2-imino-3-methyl-2,3-dihydro-1H-benzimidazol-1-yl)ethanone hydrochloride]
- effect on DevR dimerization: inhibitory effect against DevR dimerization at low concentrations
- concentration with the most dramatic effect on DevR dimerization: 12.5 µg/mL

Structure (SMILES): CC(=O)NS(=O)(=O)c1ccc(NC(=O)CCc2ccccc2)cc1 [N-(4-[(acetylamino)sulfonyl]phenyl)-3-phenylpropanamide]
- effect on DevR dimerization: inhibitory effect against DevR dimerization at low concentrations
- concentration with the most dramatic effect on DevR dimerization: 12.5 µg/mL
